What all share (assay): Antifungal activity, standard agar dilution streak method
Assay type in all cases: cell-based

For experiment [1], the system named is Candida albicans 3147. To be noted: read-out: Minimum inhibitory concentration. How it is done:
(§1) The antifungal activity of the compound of the present invention was assayed by the standard agar dilution streak method against fungi.

Experiment [2] relates to Candida albicans IFO-1388. Conditions: IFO1388, read-out: Minimum inhibitory concentration. How it is done:
as §1

For experiment [3], the system named is Candida albicans IFO-1594. Conditions: IFO1594, read-out: Minimum inhibitory concentration. The method, then:
as §1

In experiment [4] the test system is Candida albicans KYF-602. Conditions: KYF602, read-out: Minimum inhibitory concentration. How it is done: as §1
Experiment [5] deals with Candida albicans MTU-12124. Conditions: MTU12124, read-out: Minimum inhibitory concentration. The method, then: as §1
Experiment [6] has as its system Candida stellatidea IFO-1398. Conditions: IFO1398, read-out: Minimum inhibitory concentration. The method, then: as §1
Experiment [7] concerns Trichophyton mentagrophytes MTU-19003. Conditions: MTU19003, read-out: Minimum inhibitory concentration. The method, then: as §1
Experiment [8] has as its system Trichophyton mentagrophytes MTU-19005. Conditions: MTU19005, read-out: Minimum inhibitory concentration. How it is done: as §1
Experiment [9] deals with Aspergillus fumigatus MTU-06002. To be noted: MTU06002, read-out: Minimum inhibitory concentration. How it is done: as §1
The test system of experiment [10] is Microsporum canis 200100. To be noted: read-out: Minimum inhibitory concentration. How it is done:
as §1

Converted amounts (≈) assume the structure as drawn.

Take `Clc1cc(Cl)n2c(-c3ccc(Br)cc3)nc(Cl)c2n1` [Exp. 17]: the MIC is 1.56 µg/mL (≈ 4.13 µM) in experiment [1]; 0.78 µg/mL (≈ 2.07 µM) in experiment [2]; 1.56 µg/mL (≈ 4.13 µM) in experiment [3]; 6.25 µg/mL (≈ 16.6 µM) in [4]; 3.13 µg/mL (≈ 8.29 µM) in experiment [5]; 0.39 µg/mL (≈ 1.03 µM) in experiment [6]. Further, the MIC in [7] and in [8] was 3.13 µg/mL (≈ 8.29 µM) in each case.
With `Clc1cc(Cl)n2c(-c3ccccc3)nc(Cl)c2n1` [Exp. 13, 2,4,8-trichloro-6-phenylimidazo[1,5-a]pyrimidine], the MIC is 6.25 µg/mL (≈ 20.9 µM) in experiment [9]; 3.13 µg/mL (≈ 10.5 µM) in experiment [1]; 3.13 µg/mL (≈ 10.5 µM) in [2]; 3.13 µg/mL (≈ 10.5 µM) in experiment [3]; 3.13 µg/mL (≈ 10.5 µM) in experiment [4]; 12.5 µg/mL (≈ 41.9 µM) in experiment [5]. Also, the MIC came to 6.25 µg/mL (≈ 20.9 µM) in [6], 0.78 µg/mL (≈ 2.61 µM) in experiment [10], 0.78 µg/mL (≈ 2.61 µM) in [7] and 0.78 µg/mL (≈ 2.61 µM) in experiment [8].
As for `Clc1cc(Cl)n2c(-c3cccs3)ncc2n1` [Exp. 1, 2,4-dichloro-6-(2-thienyl)imidazo[1,5-a]pyrimidine], the MIC in experiment [9] turned out to be 6.25 µg/mL (≈ 23.1 µM); in experiment [1] it was 3.13 µg/mL (≈ 11.6 µM); in [2], 1.56 µg/mL (≈ 5.77 µM); in experiment [3] it was 1.56 µg/mL (≈ 5.77 µM); in experiment [4] it was 6.25 µg/mL (≈ 23.1 µM); in experiment [5], 6.25 µg/mL (≈ 23.1 µM). For the same compound, the MIC in experiment [6], in [10], in [7] and in [8] was 1.56 µg/mL (≈ 5.77 µM) throughout.
As to `Clc1cc(Cl)n2c(-c3ccc(Br)s3)ncc2n1` [Exp. 6], the MIC in experiment [9] was found to be 3.13 µg/mL (≈ 8.97 µM); in experiment [1], 0.78 µg/mL (≈ 2.23 µM); in experiment [2] it was 0.78 µg/mL (≈ 2.23 µM); in [3], 3.13 µg/mL (≈ 8.97 µM); in [4] it was 3.13 µg/mL (≈ 8.97 µM); in experiment [5], 0.78 µg/mL (≈ 2.23 µM). Also, the MIC in experiment [6] was 0.78 µg/mL (≈ 2.23 µM); in [10], 0.78 µg/mL (≈ 2.23 µM); in [7] it was 1.56 µg/mL (≈ 4.47 µM); in experiment [8] it was 0.78 µg/mL (≈ 2.23 µM).
Consider `Clc1ccc(Cc2nc(Cl)c3nc(Cl)cc(Cl)n23)cc1` [compound 18], for which the MIC in [1] was found to be 1.56 µg/mL (≈ 4.5 µM); in [2], 0.2 µg/mL (≈ 0.576 µM); in experiment [3] it was 3.13 µg/mL (≈ 9.02 µM); in [4] it was 25 µg/mL (≈ 72 µM); in [5], 6.25 µg/mL (≈ 18 µM); in experiment [6] it was 0.78 µg/mL (≈ 2.25 µM). For the same compound, the MIC in [7] worked out at 3.13 µg/mL (≈ 9.02 µM); in experiment [8], 1.56 µg/mL (≈ 4.5 µM).
In the case of `Clc1cc(Cl)n2c(-c3ccc(Cl)s3)ncc2n1` [Exp. 7], the MIC in experiment [1] was found to be 0.2 µg/mL (≈ 0.657 µM); in [2], 0.78 µg/mL (≈ 2.56 µM); in [3], 0.2 µg/mL (≈ 0.657 µM); in [4], 0.39 µg/mL (≈ 1.28 µM); in experiment [5], 1.56 µg/mL (≈ 5.12 µM); in experiment [6], 0.78 µg/mL (≈ 2.56 µM). For the same compound, the MIC in experiment [7] and in experiment [8] was 0.78 µg/mL (≈ 2.56 µM) in each case.
For `Clc1cc(Cl)n2c(-c3ccco3)ncc2n1` [Exp. 3], the MIC was 12.5 µg/mL (≈ 49.2 µM) in [9]; 3.13 µg/mL (≈ 12.3 µM) in [1]; 3.13 µg/mL (≈ 12.3 µM) in experiment [2]; 3.13 µg/mL (≈ 12.3 µM) in [3]; 12.5 µg/mL (≈ 49.2 µM) in [4]; 6.25 µg/mL (≈ 24.6 µM) in [5]. Moreover, the MIC in [6] came out at 3.13 µg/mL (≈ 12.3 µM); in [10], 1.56 µg/mL (≈ 6.14 µM); in experiment [7], 3.13 µg/mL (≈ 12.3 µM); in [8], 3.13 µg/mL (≈ 12.3 µM).
As to `Clc1cc(Cl)n2c(-c3ccsc3)ncc2n1` [Exp. 5], the MIC was 3.13 µg/mL (≈ 11.6 µM) in [9]; 3.13 µg/mL (≈ 11.6 µM) in experiment [1]; 6.25 µg/mL (≈ 23.1 µM) in experiment [2]; 3.13 µg/mL (≈ 11.6 µM) in experiment [3]; 12.5 µg/mL (≈ 46.3 µM) in [4]; 6.25 µg/mL (≈ 23.1 µM) in experiment [5]. Moreover, the MIC in [6] came out at 6.25 µg/mL (≈ 23.1 µM); in experiment [10] it was 1.56 µg/mL (≈ 5.77 µM); in [7], 1.56 µg/mL (≈ 5.77 µM); in experiment [8] it was 0.78 µg/mL (≈ 2.89 µM).
With `Cc1ccc(-c2ncc3nc(Cl)cc(Cl)n23)s1` [Exp. 8], the MIC in experiment [1] was 1.56 µg/mL (≈ 5.49 µM); in experiment [2], 6.25 µg/mL (≈ 22 µM); in experiment [3], 6.25 µg/mL (≈ 22 µM); in experiment [4], 6.25 µg/mL (≈ 22 µM); in experiment [5], 3.13 µg/mL (≈ 11 µM); in [6] it was 1.56 µg/mL (≈ 5.49 µM). Besides, the MIC in [7] and in [8] was 1.56 µg/mL (≈ 5.49 µM) throughout.
On to `Clc1cc(Cl)n2c(Cc3cccs3)ncc2n1` [Exp. 4], for which the MIC in experiment [9] is 12.5 µg/mL (≈ 44 µM); in experiment [1], 3.13 µg/mL (≈ 11 µM); in [2] it was 6.25 µg/mL (≈ 22 µM); in [3], 3.13 µg/mL (≈ 11 µM); in experiment [4], 6.25 µg/mL (≈ 22 µM); in experiment [5], 6.25 µg/mL (≈ 22 µM). For the same compound, the MIC in experiment [6] worked out at 3.13 µg/mL (≈ 11 µM); in experiment [10] it was 1.56 µg/mL (≈ 5.49 µM); in [7], 1.56 µg/mL (≈ 5.49 µM); in experiment [8] it was 1.56 µg/mL (≈ 5.49 µM).
As for `Clc1cc(Cl)n2c(C3CCCCC3)nc(Cl)c2n1` [compound 19], the MIC in [1] worked out at 0.78 µg/mL (≈ 2.56 µM); in experiment [2], 0.2 µg/mL (≈ 0.657 µM); in [3], 1.56 µg/mL (≈ 5.12 µM); in experiment [4] it was 1.56 µg/mL (≈ 5.12 µM); in [5], 1.56 µg/mL (≈ 5.12 µM); in [6], 1.56 µg/mL (≈ 5.12 µM). Also, the MIC in experiment [7] came out at 3.13 µg/mL (≈ 10.3 µM); in [8], 1.56 µg/mL (≈ 5.12 µM).
